# From patent US9995734B2, “Human T cell line assay for evaluating the immunologic identity of glatiramer acetate preparations” (Mylan Inc., priority 2013, dated 2018)
# System: Donor 3 GMA T-Cell Lines
# Assay: ATP proliferation assay (CellTiter Glo), Donor 3 GMA T-cell lines, incl. reactivity to non-canonical GA peptides
# Format: cell-based, human
# Settings: for ATP proliferation assay: Day 14
substance,measurement,setting,value
glatiramer acetate [GMA],ratio of proliferation in response to GMA:control (APC only),,greater than 3.0
same,ATP proliferation assay,"165-B2G, 10 μg/mL, control 9692",28770 RLU
same,response in proliferation assay,"165-B5G, 165-D8G, 165-E7G, 165-F5G, Day 56, 0, 1, 5, 10, 100 μg/mL, GMA and COP responses comparable",responded well
same,ATP proliferation assay,"165-B5G, 10 μg/mL, control 15423",63023 RLU
same,ATP proliferation assay,"165-B11G, 10 μg/mL, control 18412",56588 RLU
same,ATP proliferation assay,"165-C4G, 10 μg/mL, control 14869",62306 RLU
same,ATP proliferation assay,"165-C5G, 10 μg/mL, control 14240",76296 RLU
same,ATP proliferation assay,"165-C8G, 10 μg/mL, control 18205",79281 RLU
same,ATP proliferation assay,"165-D8G, 10 μg/mL, control 30331",136938 RLU
same,ATP proliferation assay,"165-E7G, 10 μg/mL, control 18215",66364 RLU
same,ATP proliferation assay,"165-E9G, 10 μg/mL, control 17059",52948 RLU
same,ATP proliferation assay,"165-F2G, 10 μg/mL, control 14734",44951 RLU
same,ATP proliferation assay,"165-F5G, 10 μg/mL, control 16943",100677 RLU
same,ATP proliferation assay,"165-F8G, 10 μg/mL, control 17986",72716 RLU
same,ATP proliferation assay,"165-F10G, 10 μg/mL, control 13314",42447 RLU
same,ATP proliferation assay,"165-H11G, 10 μg/mL, control 17149",52850 RLU
same,"Proliferation (luminescent ATP assay), Mean","T-cell line 165-05G, 1 μg/mL antigen, Day 50 of culturing, No Antigen Value 2149",3999 RLU
same,"Proliferation (luminescent ATP assay), Mean","T-cell line 165-05G, 3 μg/mL antigen, Day 50 of culturing, No Antigen Value 2149",35643 RLU
same,"Proliferation (luminescent ATP assay), Mean","T-cell line 165-05G, 10 μg/mL antigen, Day 50 of culturing, No Antigen Value 2149",53130 RLU
same,"Proliferation (luminescent ATP assay), Mean","T-cell line 165-05G, 30 μg/mL antigen, Day 50 of culturing, No Antigen Value 2149",55596 RLU
same,"Mean, ATP proliferation assay","T-cell line 165-B2G, 1 μg/mL, Day 40",4034
same,"Mean, ATP proliferation assay","T-cell line 165-B2G, 3 μg/mL, Day 40",20994
same,"Mean, ATP proliferation assay","T-cell line 165-B2G, 10 μg/mL, Day 40",38244
same,"Mean, ATP proliferation assay","T-cell line 165-B5G, 1 μg/mL, Day 40",3866
same,"Proliferation (luminescent ATP assay), Mean","T-cell line 165-B5G, 1.25 μg/mL antigen, Day 55 of culturing, No Antigen Value 846",1406 RLU
same,"Proliferation (luminescent ATP assay), Mean","T-cell line 165-B5G, 2.5 μg/mL antigen, Day 55 of culturing, No Antigen Value 846",2537 RLU
same,"Mean, ATP proliferation assay","T-cell line 165-B5G, 3 μg/mL, Day 40",6591
same,"Proliferation (luminescent ATP assay), Mean","T-cell line 165-B5G, 5 μg/mL antigen, Day 55 of culturing, No Antigen Value 846",5205 RLU
same,"Proliferation (luminescent ATP assay), Mean","T-cell line 165-B5G, 10 μg/mL antigen, Day 55 of culturing, No Antigen Value 846",11364 RLU
same,"Mean, ATP proliferation assay","T-cell line 165-B5G, 10 μg/mL, Day 40",12367
same,"Mean, ATP proliferation assay","T-cell line 165-C4G, 1 μg/mL, Day 40",3434
same,"Mean, ATP proliferation assay","T-cell line 165-C4G, 3 μg/mL, Day 40",6312
same,"Mean, ATP proliferation assay","T-cell line 165-C4G, 10 μg/mL, Day 40",19169
same,"Mean, ATP proliferation assay","T-cell line 165-C5G, 1 μg/mL, Day 40",12236
same,"Proliferation (luminescent ATP assay), Mean","T-cell line 165-C5G, 1.25 μg/mL antigen, autologous B-LCL",2511 RLU
same,"Proliferation (luminescent ATP assay), Mean","T-cell line 165-C5G, 2.5 μg/mL antigen, autologous B-LCL",26253 RLU
same,"Mean, ATP proliferation assay","T-cell line 165-C5G, 3 μg/mL, Day 40",36288
same,"Proliferation (luminescent ATP assay), Mean","T-cell line 165-C5G, 5 μg/mL antigen, autologous B-LCL",67559 RLU
same,"Proliferation (luminescent ATP assay), Mean","T-cell line 165-C5G, 10 μg/mL antigen, autologous B-LCL",74630 RLU
same,"Mean, ATP proliferation assay","T-cell line 165-C5G, 10 μg/mL, Day 40",45444
same,"Mean, ATP proliferation assay","T-cell line 165-C8G, 1 μg/mL, tested with the Donor 3 COP lines of Table 25",5605 RLU
same,"Mean, ATP proliferation assay","T-cell line 165-C8G, 3 μg/mL, tested with the Donor 3 COP lines of Table 25",5002 RLU
same,"Mean, ATP proliferation assay","T-cell line 165-C8G, 10 μg/mL, tested with the Donor 3 COP lines of Table 25",30200 RLU
same,"Mean, ATP proliferation assay","T-cell line 165-D8G, 1 μg/mL, Day 40",9427
same,"Mean, ATP proliferation assay","T-cell line 165-D8G, 3 μg/mL, Day 40",12644
same,"Mean, ATP proliferation assay","T-cell line 165-D8G, 10 μg/mL, Day 40",31264
same,"Mean, ATP proliferation assay","T-cell line 165-E7G, 1 μg/mL, Day 40",2569
same,"Proliferation (luminescent ATP assay), Mean","T-cell line 165-E7G, 1.25 μg/mL antigen, autologous B-LCL, Day 55",8875 RLU
same,"Proliferation (luminescent ATP assay), Mean","T-cell line 165-E7G, 2.5 μg/mL antigen, autologous B-LCL, Day 55",10248 RLU
same,"Mean, ATP proliferation assay","T-cell line 165-E7G, 3 μg/mL, Day 40",6610
same,"Proliferation (luminescent ATP assay), Mean","T-cell line 165-E7G, 5 μg/mL antigen, autologous B-LCL, Day 55",26934 RLU
same,"Proliferation (luminescent ATP assay), Mean","T-cell line 165-E7G, 10 μg/mL antigen, autologous B-LCL, Day 55",30721 RLU
same,"Mean, ATP proliferation assay","T-cell line 165-E7G, 10 μg/mL, Day 40",14279
same,"Proliferation (luminescent ATP assay), Mean","T-cell line 165-E9G, 1 μg/mL antigen, Day 50 of culturing, No Antigen Value 1742",1889 RLU
same,"Mean, ATP proliferation assay","T-cell line 165-E9G, 1 μg/mL, Day 40",2961
same,"Proliferation (luminescent ATP assay), Mean","T-cell line 165-E9G, 1.25 μg/mL antigen, autologous B-LCL",253 RLU
same,"Proliferation (luminescent ATP assay), Mean","T-cell line 165-E9G, 2.5 μg/mL antigen, autologous B-LCL",1647 RLU
same,"Proliferation (luminescent ATP assay), Mean","T-cell line 165-E9G, 3 μg/mL antigen, Day 50 of culturing, No Antigen Value 1742",5974 RLU
same,"Mean, ATP proliferation assay","T-cell line 165-E9G, 3 μg/mL, Day 40",7837
same,"Proliferation (luminescent ATP assay), Mean","T-cell line 165-E9G, 5 μg/mL antigen, autologous B-LCL",12964 RLU
same,"Proliferation (luminescent ATP assay), Mean","T-cell line 165-E9G, 10 μg/mL antigen, autologous B-LCL",13809 RLU
